Measurements published in patent publication US20160257697A1, “THIOPHENE-SUBSTITUTED TETRACYCLIC COMPOUNDS AND METHODS OFUSE THEREOF FOR THE TREATMENT OF VIRAL DISEASES” (priority 2013, published 2016).
Read-outs that look alike come from different tables or passages of the source.

Experiments:
Test in all cases: microbe, parasite or virus in culture
Format in all cases: cell-based, Hepatitis C virus (HCV)
HCV replicon 1AY93H = details: Replicon Assay A
Summary of the method: (§1)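 Replicon cells were seeded at 2000 cells/well with test compound in 0.5% DMSO and 5% FBS, then harvested on day 3. Replicon RNA was measured by multiplex TaqMan real-time RT-PCR, using cyclophilin RNA as the endogenous control and quantified against standard curves of HCV replicon total RNA.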

HCV replicon 1A = details: Replicon Assay A
Summary of the method: as §1

HCV replicon 2B = details: Replicon Assay A
Summary of the method: as §1

HCV replicon 1B = details: Replicon Assay B
Method: In an alternate assay (“Replicon Assay B”), 1000 cells were seeded per well in a 384-well collagen coated black plate from Greiner bio-one (Cat #781946) in 5% FBS. Inhibitors of this invention were added at 24 h post-seeding, and the plates were incubated for 3 days. Cells were subsequently lysed with Qiagen lysis buffer (Cat #1062731) to extract the RNA. HCV replicon RNA level was measured by real-time PCR using the RNA-to-CT kit from Applied Biosystem (Cat #4392656) and genotype-specific primers and probes. The amplicon was located within NS5B. […] (SEQ. ID NO. 2); the probe sequence was FAM-labeled […] (SEQ. ID NO. 3).
The real-time RT-PCR reactions were run on ABI PRISM 7900HT or Viia7 Sequence Detection System using the following program: 48° C. for 30 minutes, 95° C. for 10 minutes, 40 cycles of 95° C. for 15 sec, 60° C. for 1 minutes.
Data for replicons 1A, 1AY93H and 2B were obtained using Replicon Assay A and data for replicons 1AQ30D and 1B were obtained using Replicon Assay B.

[1] = read-out: 1A Y93H IC50, replicon 1AY93H
[2] = read-out: 1A Y93H IC50, HCV replicon 1A Y93H
[3] = read-out: 2B IC50, HCV replicon 2B
[4] = Hepatitis C virus, read-out: 2B IC50, HCV replicon 2B
[5] = Hepatitis C virus, HCV replicon 1B
[6] = Hepatitis C virus, read-out: 1A Y93H IC50, HCV replicon 1A Y93H
[7] = Hepatitis C virus, HCV replicon 1A

## COC(=O)NC(C(=O)N1CCC[C@H]1c1ncc(-c2ccc3c(c2)cc2n3C(c3ccc(C4CC4)s3)Oc3cc(-c4cnc([C@@H]5CCCN5C(=O)[C@@H](NC(=O)OC)C(C)C)[nH]4)cc(F)c3-2)[nH]1)C1CN(C(=O)OC)C1 (single isomer, unassigned) [Compound 228]
HCV replicon 1AY93H; [1]
  IC50: 0.5 nM
HCV replicon 1A; replicon 1A
  IC50: 0.002 nM
HCV replicon 2B; read-out: 2B IC50, replicon 2B
  IC50: 0.47 nM
HCV replicon 1B; replicon 1B
  IC50: 0.0038 nM

## COC(=O)N[C@H](C(=O)N1CCC[C@H]1c1ncc(-c2ccc3c(c2)OC(c2ccc(C4CC4)s2)n2c-3c(F)c3cc(-c4cnc([C@@H]5CCCN5C(=O)[C@@H](NC(=O)OC)C(C)C)[nH]4)ccc32)[nH]1)C(C)C (single isomer, unassigned) [Compound 606]
HCV replicon 1AY93H; [2]
  IC50: 0.161 nM
HCV replicon 1A; HCV replicon 1A
  IC50: 0.0026 nM
HCV replicon 2B; [3]
  IC50: 0.286 nM
HCV replicon 1B; HCV replicon 1B
  IC50: 0.0032 nM

## COC(=O)N[C@H](C(=O)N1CCC[C@H]1c1ncc(-c2cc(F)c3c(c2)OC(c2ccc(C4(C)CC4)s2)n2c-3cc3cc(-c4cnc([C@@H]5CCCN5C(=O)[C@@H](NC(=O)OC)C(C)C)[nH]4)ccc32)[nH]1)C(C)C (single isomer, unassigned) [Compound 835]
HCV replicon 1AY93H; HCV replicon 1A Y93H, read-out: 1A Y93H IC50
  IC50: 0.943 nM
HCV replicon 1A; HCV replicon 1A
  IC50: 0.0035 nM
HCV replicon 2B; HCV replicon 2B, read-out: 2B IC50
  IC50: 1.31 nM
HCV replicon 1B; HCV replicon 1B
  IC50: 0.0014 nM

## COC(=O)N[C@H](C(=O)N1C[C@H](F)C[C@H]1c1cnc(-c2ccc3c(c2)cc2n3C(c3cc4ccccc4s3)Oc3cc(-c4cnc([C@@H]5C[C@@H](F)CN5C(=O)[C@@H](NC(=O)OC)C(C)C)[nH]4)ccc3-2)[nH]1)C(C)C (single isomer, unassigned) [Compound 806]
HCV replicon 1AY93H; [2]
  IC50: 0.023 nM
HCV replicon 1A; HCV replicon 1A
  IC50: 0.041 nM
HCV replicon 2B; [3]
  IC50: 42.9 nM
HCV replicon 1B; HCV replicon 1B
  IC50: 0.009 nM

## COC(=O)N[C@H](C(=O)N1C[C@H](F)C[C@H]1c1cnc(-c2ccc3c(c2)cc2n3C(c3cc4ccccc4s3)Oc3cc(-c4cnc([C@@H]5C[C@@H](F)CN5C(=O)[C@@H](NC(=O)OC)C(C)C)[nH]4)ccc3-2)[nH]1)C(C)C (single isomer, unassigned) [Compound 805]
HCV replicon 1AY93H; [2]
  IC50: 0.01 nM
HCV replicon 1A; HCV replicon 1A
  IC50: 0.01 nM
HCV replicon 2B; [4]
  IC50: 21.5 nM
HCV replicon 1B; [5]
  IC50: 0.005 nM

## COC(=O)N[C@H](C(=O)N1CCC[C@H]1c1ncc(-c2ccc3c(c2)O[C@@H](c2cc4c(s2)CCC4)n2c-3cc3cc(-c4cnc([C@@H]5CCCN5C(=O)[C@@H](NC(=O)OC)C(C)C)[nH]4)ccc32)[nH]1)C(C)C (single isomer, unassigned) [Compound 600]
HCV replicon 1AY93H; [6]
  IC50: 0.57 nM
HCV replicon 1A; [7]
  IC50: 0.0256 nM
HCV replicon 2B; [4]
  IC50: 1.09 nM
HCV replicon 1B; [5]
  IC50: 0.186 nM

## COC(=O)NC(C(=O)N1CCC[C@H]1c1ncc(-c2cc(F)c3c(c2)OC(c2ccc(C4CC4)s2)n2c-3cc3cc(-c4cnc([C@@H]5C[C@H]6C[C@H]6N5C(=O)[C@@H](NC(=O)OC)C(C)C)[nH]4)ccc32)[nH]1)C(C)(C)F (stereo partly drawn) [Compound 97]
HCV replicon 1AY93H; Hepatitis C virus, read-out: 1A Y93H IC50 (nM), replicon 1AY93H
  IC50: 0.008 nM
HCV replicon 1A; Hepatitis C virus, replicon 1A
  IC50: 0.0011 nM
HCV replicon 2B; Hepatitis C virus, read-out: 2B IC50 (nM), replicon 2B
  IC50: 0.036 nM
HCV replicon 1B; Hepatitis C virus, replicon 1B
  IC50: 0.0024 nM

## COC(=O)N[C@H](C(=O)N1CCC[C@H]1c1ncc(-c2cc(F)c3c(c2)OC(c2ccc(F)s2)n2c-3cc3cc(-c4cnc([C@@H]5CCCN5C(=O)[C@@H](NC(=O)OC)C(C)C)[nH]4)ccc32)[nH]1)C(C)C (single isomer, unassigned) [Compound 14]
HCV replicon 1AY93H; [1]
  IC50: 0.059 nM
HCV replicon 1A; replicon 1A
  IC50: 0.002 nM
HCV replicon 2B; read-out: 2B IC50, replicon 2B
  IC50: 0.23 nM
HCV replicon 1B; replicon 1B
  IC50: 0.0024 nM

## CC[C@@H]1CC(C(NC(=O)OC)C(=O)N2CCC[C@H]2c2ncc(-c3ccc4c(c3)cc3n4C(c4ccc(C5CC5)s4)Oc4cc(-c5cnc([C@@H]6CCCN6C(=O)[C@@H](NC(=O)OC)C(C)C)[nH]5)cc(F)c4-3)[nH]2)C[C@H](CC)O1 (single isomer, unassigned) [Compound 289]
HCV replicon 1AY93H; [1]
  IC50: 1.24 nM
HCV replicon 1A; replicon 1A
  IC50: 0.0031 nM
HCV replicon 2B; read-out: 2B IC50, replicon 2B
  IC50: 5.64 nM
HCV replicon 1B; Hepatitis C virus, replicon 1B
  IC50: 0.0042 nM

## CCc1c2n(c3ccc(-c4cnc([C@@H]5CCCN5C(=O)[C@@H](NC(=O)OC)C(C)C)[nH]4)cc13)C(c1ccc(Cl)s1)Oc1cc(-c3cnc([C@@H]4CCCN4C(=O)[C@@H](NC(=O)OC)C(C)C)[nH]3)cc(F)c1-2 (stereo partly drawn) [Compound 837]
HCV replicon 1AY93H; [6]
  IC50: 1.52 nM
HCV replicon 1A; [7]
  IC50: 0.0025 nM
HCV replicon 1B; [5]
  IC50: 0.0019 nM
